For orientation: Kd means the constant that tells how readily two partners part at equilibrium. Low readings indicate higher affinity, high ones lower affinity.

This passage reports kon, koff and Kd results from doi:10.1101/2025.05.23.655736v2 (biorxiv, 2025).

The target of test [1] is T1, PcsBCHAP (CHAP domain of PcsB) (Streptococcus pneumoniae, UniProt A0A0H2ZQ76).
T1 sequence (A0A0H2ZQ76 274-392): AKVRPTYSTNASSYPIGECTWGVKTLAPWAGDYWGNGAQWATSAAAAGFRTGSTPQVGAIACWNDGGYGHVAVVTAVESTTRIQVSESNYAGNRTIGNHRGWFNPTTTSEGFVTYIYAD
Description: biochemical. As to conditions: read-out: ka (1/Ms).

The target of test [2] is T1, PcsBCHAP (CHAP domain of PcsB). Put plainly: biochemical. As to conditions: read-out: kd (1/s).
Test [3] has the same target. Put plainly: SPR. The class given is binding.

*1 amine or outer side, *2 acyl side, *3 side chain or, on linkers, in order; H or OH if unused. Where a SMILES comes first, the peptide text is derived from it. [ ]: non-standard residue; d: D form. d(isoGln) = NC(=O)[C@@H](CCC(=O)[*:2])N[*:1]

Regarding `C[C@H](N)C(=O)N[C@H](CCC(=O)N[C@@H](CCCCN)C(=O)N[C@H](C)C(=O)N[C@H](C)C(=O)O)C(=O)O` [AEKADAD], the kon in test [1] is 33300 M⁻¹ s⁻¹. Besides, the koff in test [2] came out at 0.036 s⁻¹.

On to `C[C@H](N)C(=O)N[C@H](CCC(=O)N[C@@H](CCCCN)C(=O)N[C@H](C)C(=O)N[C@H](C)C(=O)O)C(N)=O` [AiQKADAD] (H-A[d(isoGln)]K[dA][dA]-OH), for which, in test [1], the kon was 99600 M⁻¹ s⁻¹. Besides, the koff in test [2] came to 0.00502 s⁻¹.

In the case of `CC(=O)N[C@H]1C(O)O[C@H](CO)[C@@H](O)[C@@H]1O[C@H](C)C(=O)N[C@@H](C)C(=O)N[C@H](CCC(=O)N[C@@H](CCC[C@@H](N)C(=O)O)C(=O)O)C(=O)O` (stereo partly shown) [M-TriDAP], the kon in test [1] was determined as 6280 M⁻¹ s⁻¹. In test [2], the koff was determined as 0.00394 s⁻¹.

Turning to `CC(=O)N[C@H]1C(O)O[C@H](CO)[C@@H](O)[C@@H]1O[C@H](C)C(=O)N[C@@H](C)C(=O)N[C@H](CCC(=O)N[C@@H](CCCCN)C(=O)O)C(N)=O` (stereo partly shown) [M-TriLYS], the kon in test [1] worked out at 98200 M⁻¹ s⁻¹. In addition, in test [2], the koff is 0.0117 s⁻¹.

Take `N[C@H](CCC(=O)N[C@H](CCC[C@H](N)C(=O)O)C(=O)O)C(=O)O` [iE-DAP]: in test [1], the kon amounted to 158000 M⁻¹ s⁻¹. Moreover, the koff in test [2] was determined as 0.017 s⁻¹.

For `NCCCC[C@H](NC(=O)CC[C@@H](N)C(=O)O)C(=O)O` [iE-Lys], binding in test [3] was characterised by a dissociation constant (Kd) of 94.1 nM. Further, the kon in test [1] stood at 102000 M⁻¹ s⁻¹. Besides, the koff in test [2] stood at 0.00956 s⁻¹.
